Legend:
zebrafish embryos = test: In vivo toxicity on developing zebrafish embryos
A549 cells [1] = test: Annexin V-FITC/PI apoptosis flow cytometry; assay type: cell-based, human; conditions: 24 h
Description: (§1) First, A549 cells were incubated in six-well plates for 12 h and then exposed to Ru(II) complexes for 24 h. After incubation, cell nuclei were stained with Hoechst 33342 (5 μg/mL) for 10 min, washed twice with PBS, and then photographed using an inverted fluorescence microscope. […] The suspension was stained with 5 μL Annexin V-FITC and 10 μL PI at room temperature for 15 min and then analyzed using the flow cytometer.

[2] = system: HeLa (human cervical cancer); test: MTT cytotoxicity assay, HeLa; assay type: cell-based; conditions: 48 h
[3] = Stability towards GSH and BSA by UV-Vis absorption; assay type: physicochemical; conditions: 12 h, 37 °C, PBS buffer (pH 7.4)
Description: Investigating the hydrolysis in the presence of biorelevant molecules is very important to assess the chemical stability and biological activities of these title complexes.
Figure S8. UV/vis absorption of Ru-1 in the absence and presence of (A) GSH or (B) BSA. All spectra were acquired 12 h after GSH or BSA addition at 37 °C in PBS buffer (pH 7.4).
Figure S9. UV/vis absorption of Ru-2 in the absence and presence of (A) GSH or (B) BSA. All spectra were acquired 12 h after GSH or BSA addition at 37 °C in PBS buffer (pH 7.4).

[4] = system: HepG2 (human hepatocellular carcinoma); test: MTT cytotoxicity assay, HepG2; assay type: cell-based
A549 cells [5] = test: Cellular uptake and subcellular distribution by ICP-MS; assay type: cell-based, human
Description: A549 cells were seeded into six-well plates (5.0 × 10^5 cells per well) and grown overnight at 37°C in a 5% CO2 incubator. The cells were incubated with the different concentrations (5, 10, 15, and 20 μM) of Ru(II) complexes for different time intervals (1, 3, and 6 h). After the incubation, the cells were harvested and washed twice with PBS. Cell Mitochondria Isolation Kit was used to extract the nuclear, mitochondrial, and cytoplasmic fractions of the A549 cells. The pellets were digested with 3 mL concentrated nitric acid and 1 mL perhydrol for 24 h and then diluted to 5 mL with ultrapure water. Finally, ICP-MS was used to determine the amount of Ru(II) complexes uptaken by A549 cells.
It is generally acknowledged that the cellular uptake feature of transition metal-based compounds is an essential factor for their biological activities. As repeatedly reported by previous ruthenium complex-related studies, the more cellular uptake results in higher cytotoxicity. The cellular ruthenium concentration was determined by using ICP-MS after 1, 3, and 6 h of exposure to 5, 10, 15, and 20 μM Ru(II) complexes (Figure 2), respectively, and the results were reported as ng of ruthenium per 10^6 cell number.

MCF-7 (breast cancer) = test: MTT cytotoxicity assay, MCF-7; assay type: cell-based, human
[6] = system: BEAS-2B (immortalized human bronchial epithelial cells); test: MTT cytotoxicity assay, normal BEAS-2B; assay type: cell-based; conditions: 48 h
[7] = system: A549 (human lung carcinoma); test: MTT cytotoxicity assay, A549; assay type: cell-based; conditions: 48 h, MTT
A549 cells [8] = test: Comet assay (single-cell gel electrophoresis), DNA damage; assay type: cell-based, human; conditions: 10 μM, 12 h
Description: Single-cell gel electrophoresis was performed to detect DNA damage, as previously described. Comet assay was performed according to the manufacturer's instructions. DNA was stained with SYBR Green I (Trevigen) and imaged under an inverted fluorescence microscope.
Excessive intracellular ROS can activate DNA damaged sensor proteins and lead to DNA damage, an essential hallmark of cell apoptosis. Indeed, the DNA damage effect has been observed in many previously developed Ru(II) complexes. To determine whether or not these complexes can induce DNA damage, the single-cell gel electrophoresis assay (comet assay) was conducted in our study. […] Also, the comet assay (DNA fragments appearance) could serve as a mark for apoptosis assessment. As shown in Figure 6(a), in the control group, there was no comet-like cell observed. […] Increasing the concentration to 20 μM recorded markedly higher levels of comet tails, showing that more DNA fragmentation has occurred.

[9] = Solution stability by UV-Vis absorption in water and CH3CN; assay type: physicochemical; conditions: 298 K, over 24 h, 20 μM
Description: (N-N = dip, dmp) and salicylic acid in the presence of sodium hydroxide. The crude product was purified by chromatography over alumina. The obtained compounds were analyzed by elemental analysis, ESI-MS, ^1H NMR, FTIR, and UV-Vis absorption spectroscopy, and the results were shown in Figures S1–S7 in Supplementary Materials. […] In the UV-visible spectral regions, both complexes consist of two well-resolved absorption bands. In the visible region, these two complexes present a strong MLCT transition at 500–600 nm attributed to the overlap Ru(dπ)-dip or dmp (π^∗) and Ru(dπ)-SA (π^∗). The intense band occurring between 250 nm and 300 nm is attributed to an intra-ligand (IL) π-π^∗ transition by comparing with the spectra of other Ru(II)-polypyridyl complexes.

A549 cells [10] = test: Western blotting of apoptosis, Bcl-2 family and DNA damage proteins; assay type: cell-based, human
Description: Glyceraldehyde-3-phosphate dehydrogenase (GAPDH) was used as an internal control. The protein concentrations were determined by BCA Protein Assay Kit.

A549 cells [11] = test: Intracellular ROS level, DCFH-DA flow cytometry; assay type: cell-based, human; conditions: 20 μM, 12 h
Description: The mitochondrial membrane potential (MMP) of A549 cells was analyzed by using an inverted fluorescence microscope and flow cytometry. […] For microscope observation, the collected cells were incubated in complete medium containing JC-1 (10 μg/mL) for 30 min and washed with PBS twice and then imaged by an inverted fluorescence microscope (Nikon, Japan). For flow cytometry analysis, the cells were trypsinized and washed twice with PBS and then incubated in 500 μL PBS containing JC-1 (10 μg/mL) for 30 min at 37°C. The cells were analyzed by flow cytometer immediately. The intracellular ROS level of A549 cells was detected after DCFH-DA stain, as illustrated in our new publication.
Increasing intracellular ROS levels can trigger cell apoptosis. […] To explore the roles of ROS in Ru(II) complex-induced cell apoptosis, we detected intracellular ROS levels by using an inverted fluorescence microscope and flow cytometry after staining A549 cells with DCFH-DA fluorescent dye.

A549 cells [12] = test: Hoechst 33342 nuclear staining; assay type: cell-based, human; conditions: 20 μΜ, 24 h
Description: as §1

E. histolytica = system: E. histolytica; set-up: method as in PMID 17154516; conditions: read-out: IC50 anti-E. histolytica activity in vitro; cited from earlier work

## O=C1[O][Ru][O]c2ccccc21.c1ccc(-c2ccnc3c2ccc2c(-c4ccccc4)ccnc23)cc1.c1ccc(-c2ccnc3c2ccc2c(-c4ccccc4)ccnc23)cc1 [Ru-1, [Ru(dip)2(SA)]]
Zebrafish embryos; 12.5 μM
  cumulative hatch rate and lethality rate: no difference compared with those of the control group
Zebrafish embryos; 100 μM, after 96 h
  lethality rate: lower than 35%
Zebrafish embryos; 200 μM, after 72 h treatment
  cumulative hatch: lower than 70%
Zebrafish embryos; 200 μM, at 96 h
  unhealthy features observed: pericardial cysts and spine curvature
Zebrafish embryos; 12.5 to 50 μM
  side effects: no apparent side effects
Zebrafish embryos; concentration lower than 50 μM, after 96 h
  development of embryos: all zebrafish embryos can develop into juvenile zebrafish
Zebrafish embryos; concentration lower than 100 μM, at 96 h
  malformation: no malformation was observed
A549 cells [1]; 5 μM
  early apoptotic cells (I4): 14.71%
  late apoptotic/necrotic cells (I2): 7.13%
A549 cells [1]; 10 μM
  early apoptotic cells (I4): 16.27%
A549 cells [1]; 20 μM
  early apoptotic cells (I4): 21.57%
  late apoptotic/necrotic cells (I2): 20.78%
[2]
  IC50: 20.1 ± 1.3 µM
[3]
  change in characteristic absorption with excessive GSH or BSA (stability): no significant change
[4]; 48 h
  IC50: 15.4 ± 1 µM
A549 cells [5]; 5 μM, 1 h
  Intracellular content of Ru: 120.3 ± 9.5 ng Ru/10^6 A549 cell number
A549 cells [5]; 5 μM, 3 h
  Intracellular content of Ru: 168.5±13.0 ng Ru/10^6 A549 cell number
A549 cells [5]; 5 μM, 6 h
  Intracellular content of Ru: 241.2±10.6 ng Ru/10^6 A549 cell number
A549 cells [5]; 10 μM, 1 h
  Intracellular content of Ru: 146.3±13.7 ng Ru/10^6 A549 cell number
A549 cells [5]; 10 μM, 3 h
  Intracellular content of Ru: 216.8±16.9 ng Ru/10^6 A549 cell number
A549 cells [5]; 10 μM, 6 h
  Intracellular content of Ru: 299.4±1.2 ng Ru/10^6 A549 cell number
A549 cells [5]; 15 μM, 1 h
  Intracellular content of Ru: 178.5±15.4 ng Ru/10^6 A549 cell number
A549 cells [5]; 15 μM, 3 h
  Intracellular content of Ru: 246.7±25.4 ng Ru/10^6 A549 cell number
A549 cells [5]; 15 μM, 6 h
  Intracellular content of Ru: 343.8±17.0 ng Ru/10^6 A549 cell number
A549 cells [5]; 20 μM, 1 h
  Intracellular content of Ru: 215.9±19.4 ng Ru/10^6 A549 cell number
A549 cells [5]; 20 μM, 3 h
  Intracellular content of Ru: 312.4±21.5 ng Ru/10^6 A549 cell number
A549 cells [5]; 20 μM, 6 h
  Intracellular content of Ru: 432.5 ± 12.4 ng Ru/10^6 A549 cell number
A549 cells [5]; 20 μM, nuclear, mitochondrial and cytoplasmic fractions
  Subcellular distribution: mostly accumulated in the cell nucleus, followed by mitochondria
MCF-7 (breast cancer); 48 h
  IC50: 29.5 ± 2.2 µM
[6]
  IC50: 54.3 ± 3.4 µM
[7]
  IC50: 11.3 ± 1.1 µM
A549 cells [8]
  DNA fragmentation, comet assay: well-formed comet tails
[9]
  change in UV-Vis absorption spectra (solution stability): no significant change
A549 cells [10]
  cytochrome c expression in cytosol: apparent enhancement
  expression levels of antiapoptotic proteins Bcl-2 and Bcl-xl: downregulated
  expression of proapoptotic protein Bax and Bad: increased expression
  phosphorylation levels of Chk1 and Chk2: increased
A549 cells [10]; 24 h, concentration-dependent
  expression of cleaved-PARP, cleaved caspase-3/8/9: increased
  expression of total caspase-3/8: decreased
A549 cells [10]; concentration-dependent
  phosphorylation levels of ATM, ATR, histone, and p53: upregulation
A549 cells [11]
  MFI higher than the control group: about 3.0 fold
A549 cells [12]
  apoptotic features, Hoechst 33342 staining: chromatin condensation, nuclear fragmentation, and plasma membrane blebbing

## Cc1ccc2ccc3ccc(C)nc3c2n1.Cc1ccc2ccc3ccc(C)nc3c2n1.O=C1[O][Ru][O]c2ccccc21 [Ru-2, [Ru(dmp)2(SA)]]
A549 cells [1]; 5 μM
  early apoptotic cells (I4): 2.79%
  late apoptotic/necrotic cells (I2): 0.00%
A549 cells [1]; 10 μM
  early apoptotic cells (I4): 15.83%
A549 cells [1]; 20 μM
  early apoptotic cells (I4): 15.47%
  late apoptotic/necrotic cells (I2): 10.19%
[2]
  IC50: 32.5 ± 2.4 µM
[3]
  change in characteristic absorption with excessive GSH or BSA (stability): no significant change
[4]; 48 h
  IC50: 26.4 ± 2.1 µM
A549 cells [5]; 5 μM, 1 h
  Intracellular content of Ru: 85.4 ± 9.3 ng Ru/10^6 A549 cell number
A549 cells [5]; 5 μM, 3 h
  Intracellular content of Ru: 112.4±9.5 ng Ru/10^6 A549 cell number
A549 cells [5]; 5 μM, 6 h
  Intracellular content of Ru: 142.5±9.6 ng Ru/10^6 A549 cell number
A549 cells [5]; 10 μM, 1 h
  Intracellular content of Ru: 99.4±9.6 ng Ru/10^6 A549 cell number
A549 cells [5]; 10 μM, 3 h
  Intracellular content of Ru: 134.6±8.3 ng Ru/10^6 A549 cell number
A549 cells [5]; 10 μM, 6 h
  Intracellular content of Ru: 173.2±8.9 ng Ru/10^6 A549 cell number
A549 cells [5]; 15 μM, 1 h
  Intracellular content of Ru: 115.8±11.7 ng Ru/10^6 A549 cell number
A549 cells [5]; 15 μM, 3 h
  Intracellular content of Ru: 159.4±8.5 ng Ru/10^6 A549 cell number
A549 cells [5]; 15 μM, 6 h
  Intracellular content of Ru: 204.6±8.9 ng Ru/10^6 A549 cell number
A549 cells [5]; 20 μM, 1 h
  Intracellular content of Ru: 138.7±15.3 ng Ru/10^6 A549 cell number
A549 cells [5]; 20 μM, 3 h
  Intracellular content of Ru: 181.3±9.3 ng Ru/10^6 A549 cell number
A549 cells [5]; 20 μM, 6 h
  Intracellular content of Ru: 235.2 ± 16.6 ng Ru/10^6 A549 cell number
MCF-7 (breast cancer); 48 h
  IC50: 45.7 ± 3.7 µM
[6]
  IC50: 48.1 ± 3.7 µM
[7]
  IC50: 30.1 ± 1.2 µM
A549 cells [8]
  DNA fragmentation, comet assay: well-formed comet tails
[9]
  change in UV-Vis absorption spectra (solution stability): no significant change
A549 cells [11]
  MFI higher than the control group: ~1.9 fold
A549 cells [12]
  apoptotic features, Hoechst 33342 staining: chromatin condensation, nuclear fragmentation, and plasma membrane blebbing

## O=C(O)c1ccccc1O [SA, salicylic acid]
[2]; Homo sapiens, HeLa
  IC50: > 200 µM
[4]; Homo sapiens, HepG2, 48 h
  IC50: > 200 µM
MCF-7 (breast cancer); Homo sapiens, MCF7, 48 h
  IC50: > 200 µM
[7]; Homo sapiens, A549
  IC50: > 200 µM

## CC(=O)C=C(C)[O-].[Cl-].[Ru+2].c1ccc(CCSCCSCCc2ccccn2)nc1 [[Ru(acac)(pdto)]Cl]
E. histolytica
  IC50: 0.06 µM

— paper PMC7448123, “Ru(II) Complexes Bearing O, O-Chelated Ligands Induced Apoptosis in A549 Cells through the Mitochondrial Apoptotic Pathway” (Bioinorganic Chemistry and Applications, 2020)
